Source: patent publication US7507739B2, “6-[(substituted)phenyl]triazolopyrimidines as anticancer agents” (Wyeth, priority 2003, dated 2009)

How the values were obtained:
KB cells = test: MTS cytotoxicity test with KB cells; assay type: cell-based; settings: Homo sapiens; KB cells, MTS; read-out: IC50 KB
Description: (§1) Human cancer cell lines, unless otherwise noted, are obtained from the American Type Culture Collection (Rockville, Md.). The following drug-sensitive parental cell lines, and their derived drug-resistant counterparts, are obtained from the originators as listed: (a) S1 (parental line from a subclone of human colon carcinoma line LS174T) and derived S1-M1-3.2 (herein called S1-M1) which expresses the MXR drug transporter protein, are provided by Dr. L. Greenberger, Wyeth Research (Rabindran, S. K., He, H., Singh, M., Brown, E., Collins, K. I., Annable, T., and Greenberger, L. M. Reversal of a novel multidrug resistance mechanism in human colon carcinoma cells by fumitremorgin C. Cancer Res., 58:5850-5858,1998); (b) parental HL-60 human promyelocytic leukemia line and derived HL-60/ADR, which expresses the MRP1 drug transporter protein, are provided by Dr. M. Center, University of Kansas (McGrath, T., and Center, M. S. Adriamycin resistance in HL60 cells in the absence of detectable P-glycoprotein. Biochem. Biophys. […] J. Biol. Chem., 261: 7762-7770,1986) via Dr. L. Greenberger, Wyeth Research.
(§2) The assay, which is sold in kit form by Promega (Madison, Wis.; CellTiter 96 AQueous Non-Radioactive Cell Proliferation Assay), is based on the conversion by viable cells, but not by dead cells, of the tetrazolium salt, MTS (3-(4,5-dimethylthiazol-2-yl)-5-(3-carboxymethoxyphenyl)-2-(4-sulphophenyl)-2H-tetrazolium, inner salt), into a water-soluble colored formazan which is detected by spectrophotometry. Compounds are tested at nine concentrations, in order to determine IC50 values. For the test procedure, cells are harvested by trypsinization (or, in the case of non-adherent cells, by simple resuspension), washed, counted and distributed to wells of 96-well flat-bottom microtiter plates at 1000 cells per well in 200 μL of medium. In addition, one row of wells on a separate plate received cells as above (“time 0” plate). All plates are incubated at 37° in humidified 5% CO2 in air for about 24 hr.
(§3) On day 2, compounds for test are diluted and added to wells. Compounds are dissolved in DMSO at 10 mg/mL. For each compound, nine serial 2-fold dilutions are prepared in DMSO. Ten μL of each dilution in DMSO is transferred to 100 μL of medium, mixed well, and then 5 μL of this dilution is transferred in quadruplicate to wells containing cells. […] Plates are returned to the incubator for three days. At the time of drug addition to the experimental plates, the MTS assay is run on the “time 0” plate. This produced the “time 0 MTS value” which is related to the number of viable cells per well at the time of drug addition.
(§4) After three days of culture with test compounds (day 5 overall), the MTS assay is done on all wells of the experimental plates. The absorbance values of the quadruplicate sample wells are averaged and divided by the average of the “time 0” values. […] The nine values for each compound are plotted against concentration, and the concentration that produced a relative color yield half way between the maximum and minimum is taken as the IC50 value.
(§5) The KB lines express different amounts of the P-glycoprotein (MDR1) membrane pump which produces resistance to the action of many cytotoxic compounds, including paclitaxel and vincristine. The parental KB line expresses no P-glycoprotein, KB-8-5 expresses moderate levels of the protein, and KB-V1 expresses very high levels.

KB-V1 cells = test: MTS cytotoxicity test with KB-V1 cells (very high P-glycoprotein); assay type: cell-based, human; settings: for IC50: Homo sapiens, KB-V1 cells, MTS; for Ratio VI/KB: IC50 on KB VI cells/IC50 on KB cells
Description: as §1, §2, §3, §4, §5

HL-60 cells = test: MTS cytotoxicity test with HL-60 cells; assay type: cell-based; settings: Homo sapiens; HL-60 cells, MTS; read-out: IC50 HL-60
Description: as §1, §2, §3, §4
(§6) HL-60/ADR cells overexpress the multidrug resistance protein MRP1 which mediates resistance to some chemotherapeutics (Gottesman, M. M., Fojo, T., and Bates, S. E. Multidrug resistance in cancer: role of ATP-dependent transporters. Nature Rev. Cancer, 2: 48-58, 2002). The IC50 values of representative examples of this invention, as well as reference compounds, on HL-60/ADR are compared to values on the sensitive parental HL-60 line.

KB-8-5 cells = test: MTS cytotoxicity test with KB-8-5 cells (moderate P-glycoprotein); assay type: cell-based, human; settings: for IC50: Homo sapiens, KB-8-5 cells, MTS, read-out: IC50 KB 8.5; for Ratio 8.5/KB: IC50 on KB 8.5 cells/IC50 on KB cells
Description: as §1, §2, §3, §4, §5

S1 cells = test: MTS cytotoxicity test with S1 cells; assay type: cell-based; settings: Homo sapiens
Description: as §1, §2, §3, §4
as §6, with “S1-M1” for “HL-60/ADR”, “MXR transporter” for “multidrug resistance protein MRP1”, “Miltidrug” for “Multidrug”, “S1” for “HL-60”

HL-60/ADR cells = test: MTS cytotoxicity test with HL-60/ADR cells (MRP1); assay type: cell-based, human; settings: for Ratio: IC50 on HL-60/ADR cells/IC50 on HL-60 cells
Description: as §1, §2, §3, §4, §6

S1-M1 cells = test: MTS cytotoxicity test with S1-M1 cells (MXR); assay type: cell-based, human; settings: for Ratio: IC50 on S1-M1 cells/IC50 on S1 cells
Description: as §1, §2, §3, §4
as §6, with “S1-M1” for “HL-60/ADR”, “MXR transporter” for “multidrug resistance protein MRP1”, “Miltidrug” for “Multidrug”, “S1” for “HL-60”

In the case of `CC[C@@]1(O)C(=O)OCc2c1cc1n(c2=O)Cc2cc3ccccc3nc2-1` [Camptothecin, reference compound], the IC50 (KB cells) is reported as 0.024 µM, the IC50 (KB-V1 cells) is reported as 0.039 µM and the “Ratio VI/KB” value (KB-V1 cells) is reported as 1.6. The IC50 (HL-60 cells) was 0.012 µM, the IC50 (KB-8-5 cells) was 0.033 µM and the “Ratio 8.5/KB” value (KB-8-5 cells) was 1.4. The IC50 (S1 cells) was 0.0089 µM, the IC50 (HL-60/ADR cells; Homo sapiens, HL60/ADR, HL-60/ADR cells, MTS, read-out: IC50 HL-60/ADR) was 0.017 µM and the Ratio (HL-60/ADR cells) was 1.4. The IC50 (S1-M1 cells; Homo sapiens, S1-M1 cells, MTS, read-out: IC50 S1-M1) was 0.017 µM and the Ratio (S1-M1 cells) was 1.9.
With `COc1cccc2c1C(=O)c1c(O)c3c(c(O)c1C2=O)C[C@@](O)(C(=O)CO)C[C@@H]3O[C@H]1C[C@H](N)[C@H](O)[C@H](C)O1` [Doxorubicin, reference compound] the IC50 (KB cells) was 0.023 µM, the IC50 (KB-V1 cells) was greater than 3 µM and the “Ratio VI/KB” value (KB-V1 cells) was greater than 130. The “Ratio VI/KB” value (KB-V1 cells; listed as doxorubicin) was greater than 130, the IC50 (HL-60 cells) was 0.023 µM and the IC50 (KB-8-5 cells) was 0.07 µM. The “Ratio 8.5/KB” value (KB-8-5 cells) was 3.0, the IC50 (S1 cells) was 0.034 µM and the Ratio (HL-60/ADR cells) was 93. It also gave a Ratio (S1-M1 cells) of 74.
